Laboratory results reported in US20250186321A1, “FORMULATION USING AMINO ACID AND CARBOXYLIC ACID, ORGANIC SALT, AND COMPOSITION COMPRISING SAME AND USE THEREOF” (MIYOSHI OIL & FAT CO., LTD., priority 2021, published 2025).

Assay: Appearance of formulation (state at 25° C.)
Format: physicochemical
Description: Formulations 1 to 427 shown in Tables 1A to 1D were prepared by the above-described method using the components (A) and (B) at the compounding molar ratios shown in the tables, and their states at 25° C. were observed.

[1] = 25° C., components (A) and (B) at the compounding molar ratio shown

Row | SMILES | state at 25° C. [1] | state at 25° C. (Tables 1C-1 to 1D, compounding molar ratio (Component (A):Component (B)) 1:1)
1 | NCCCC[C@H](N)C(=O)O.O=CO [Formulation 1] | Solid | 
2 | CC(=O)O.NCCCC[C@H](N)C(=O)O [Formulation 2] | Solid | 
3 | CCC(=O)O.NCCCC[C@H](N)C(=O)O [Formulation 3] | Solid | 
4 | CCCC(=O)O.NCCCC[C@H](N)C(=O)O [Formulation 5] | Solid | 
5 | CCCCC/C=C\C/C=C\CCCCCCCC(=O)O.NCCCC[C@H](N)C(=O)O [Formulation 8] | Solid | 
6 | CC(O)C(=O)O.NCCCCC(N)C(=O)O (stereo not drawn) [Formulation 10] | Solid | 
7 | NCCCC[C@H](N)C(=O)O.O=C(O)CCCCC(=O)O [Formulation 11] | Solid | 
8 | NCCCC[C@H](N)C(=O)O.O=C(O)CCC(=O)O [Formulation 12] | Solid | 
9 | NCCCC[C@H](N)C(=O)O.N[C@@H](CCC(=O)O)C(=O)O [Formulation 13] | Solid | 
10 | NCCCC[C@H](N)C(=O)O.O=C(O)/C=C/C(=O)O [Formulation 14] | Liquid | 
11 | NCCCC[C@H](N)C(=O)O.O=C(O)C[C@H](O)C(=O)O [Formulation 15] | Solid | 
12 | NCCCC[C@H](N)C(=O)O.O=C(O)C(O)C(O)C(=O)O [Formulation 17] | Solid | 
13 | NCCCC[C@H](N)C(=O)O.O=C(O)c1ccccc1 [Formulation 18] | Solid | 
14 | NCCCC[C@H](N)C(=O)O.O=C(O)/C=C/c1ccccc1 [Formulation 19] | Solid | 
15 | NCCCC[C@H](N)C(=O)O.O=C1O[C@H]([C@@H](O)CO)C(O)=C1O [Formulation 20] | Solid | 
16 | NCCCC[C@H](N)C(=O)O.O=C1O[C@H]([C@H](O)CO)C(O)=C1O [Formulation 21] | Liquid | 
17 | NCCCC[C@H](N)C(=O)O.O=CO.O=CO [Formulation 22] | Solid | 
18 | CC(=O)O.CC(=O)O.NCCCC[C@H](N)C(=O)O [Formulation 23] | Solid | 
19 | CCC(=O)O.CCC(=O)O.NCCCC[C@H](N)C(=O)O [Formulation 24] | Solid | 
20 | CCCCCC(=O)O.CCCCCC(=O)O.NCCCC[C@H](N)C(=O)O [Formulation 25] | Solid | 
21 | CCCC(=O)O.CCCC(=O)O.NCCCC[C@H](N)C(=O)O [Formulation 26] | Solid | 
22 | CCCCCCCC/C=C\CCCCCCCC(=O)O.CCCCCCCC/C=C\CCCCCCCC(=O)O.NCCCC[C@H](N)C(=O)O [Formulation 28] | Solid | 
23 | CCCCC/C=C\C/C=C\CCCCCCCC(=O)O.CCCCC/C=C\C/C=C\CCCCCCCC(=O)O.NCCCC[C@H](N)C(=O)O [Formulation 29] | Solid | 
24 | CC(O)C(=O)O.CC(O)C(=O)O.NCCCC[C@H](N)C(=O)O [Formulation 31] | Solid | 
25 | NCCCC[C@H](N)C(=O)O.O=C(O)CCCCC(=O)O.O=C(O)CCCCC(=O)O [Formulation 32] | Solid | 
26 | NCCCC[C@H](N)C(=O)O.O=C(O)CCC(=O)O.O=C(O)CCC(=O)O [Formulation 33] | Solid | 

Row | SMILES | state at 25° C. [1] | state at 25° C. (Tables 1C-1 to 1D, compounding molar ratio (Component (A):Component (B)) 1:1)
27 | NCCCC[C@H](N)C(=O)O.N[C@@H](CCC(=O)O)C(=O)O.N[C@@H](CCC(=O)O)C(=O)O [Formulation 34] | Solid | Solid
28 | NCCCC[C@H](N)C(=O)O.O=C(O)/C=C/C(=O)O.O=C(O)/C=C/C(=O)O [Formulation 35] | Solid | 
29 | NCCCC[C@H](N)C(=O)O.O=C(O)C[C@H](O)C(=O)O.O=C(O)C[C@H](O)C(=O)O [Formulation 36] | Solid | 
30 | NCCCC[C@H](N)C(=O)O.O=C(O)C(O)C(O)C(=O)O.O=C(O)C(O)C(O)C(=O)O [Formulation 38] | Solid | 
31 | NCCCC[C@H](N)C(=O)O.O=C(O)c1ccccc1.O=C(O)c1ccccc1 [Formulation 39] | Solid | 
32 | NCCCCC(N)C(=O)O.O=C(O)C=Cc1ccccc1.O=C(O)C=Cc1ccccc1 [Formulation 40] | Solid | 
33 | NCCCC[C@H](N)C(=O)O.O=C1O[C@H]([C@@H](O)CO)C(O)=C1O.O=C1O[C@H]([C@@H](O)CO)C(O)=C1O [Formulation 41] | Solid | 
34 | NCCCC[C@H](N)C(=O)O.O=C1O[C@H]([C@H](O)CO)C(O)=C1O.O=C1O[C@H]([C@H](O)CO)C(O)=C1O [Formulation 42] | Solid | 
35 | N=C(N)NCCC[C@H](N)C(=O)O.O=CO [Formulation 43] | Solid | 
36 | CC(=O)O.N=C(N)NCCC[C@H](N)C(=O)O [Formulation 44] | Solid | 
37 | CCC(=O)O.N=C(N)NCCC[C@H](N)C(=O)O [Formulation 45] | Solid | 
38 | CCCCCC(=O)O.N=C(N)NCCC[C@H](N)C(=O)O [Formulation 46] | Solid | 
39 | CCCC(=O)O.N=C(N)NCCC[C@H](N)C(=O)O [Formulation 47] | Solid | 
40 | N=C(N)NCCC[C@H](N)C(=O)O.O=C(O)CCCCC(=O)O [Formulation 53] | Solid | 
41 | N=C(N)NCCC[C@H](N)C(=O)O.O=C(O)CCC(=O)O [Formulation 54] | Solid | 
42 | N=C(N)NCCC[C@H](N)C(=O)O.N[C@@H](CCC(=O)O)C(=O)O [Formulation 55] | Solid | 
43 | N=C(N)NCCC[C@H](N)C(=O)O.O=C(O)/C=C/C(=O)O [Formulation 56] | Solid | 
44 | N=C(N)NCCC[C@H](N)C(=O)O.O=C(O)/C=C/c1ccccc1 [Formulation 61] | Solid | 
45 | N=C(N)NCCCC(N)C(=O)O.O=CO.O=CO (stereo not drawn) [Formulation 64] | Solid | 
46 | CC(=O)O.CC(=O)O.N=C(N)NCCC[C@H](N)C(=O)O [Formulation 65] | Solid | 
47 | CCC(=O)O.CCC(=O)O.N=C(N)NCCC[C@H](N)C(=O)O [Formulation 66] | Solid | 
48 | CCCCCC(=O)O.CCCCCC(=O)O.N=C(N)NCCC[C@H](N)C(=O)O [Formulation 67] | Solid | 
49 | CCCC(=O)O.CCCC(=O)O.N=C(N)NCCC[C@H](N)C(=O)O [Formulation 68] | Solid | 
50 | N=C(N)NCCC[C@H](N)C(=O)O.O=C(O)CCCCC(=O)O.O=C(O)CCCCC(=O)O [Formulation 74] | Solid | 
51 | N=C(N)NCCC[C@H](N)C(=O)O.O=C(O)CCC(=O)O.O=C(O)CCC(=O)O [Formulation 75] | Solid | 
52 | N=C(N)NCCC[C@H](N)C(=O)O.N[C@@H](CCC(=O)O)C(=O)O.N[C@@H](CCC(=O)O)C(=O)O [Formulation 76] | Solid | 

Row | SMILES | state at 25° C. [1] | state at 25° C. (Tables 1C-1 to 1D, compounding molar ratio (Component (A):Component (B)) 1:1)
53 | N=C(N)NCCC[C@H](N)C(=O)O.O=C(O)/C=C/C(=O)O.O=C(O)/C=C/C(=O)O [Formulation 77] | Solid | 
54 | N=C(N)NCCC[C@H](N)C(=O)O.O=C(O)c1ccccc1.O=C(O)c1ccccc1 [Formulation 81] | Solid | 
55 | N=C(N)NCCCC(N)C(=O)O.O=C(O)C=Cc1ccccc1.O=C(O)C=Cc1ccccc1 (stereo not drawn) [Formulation 82] | Solid | 
56 | N=C(N)NCCC[C@H](N)C(=O)O.O=C1O[C@H]([C@@H](O)CO)C(O)=C1O.O=C1O[C@H]([C@@H](O)CO)C(O)=C1O [Formulation 83] | Solid | 
57 | N[C@@H](Cc1c[nH]cn1)C(=O)O.O=CO [Formulation 85] | Solid | 
58 | CC(=O)O.N[C@@H](Cc1c[nH]cn1)C(=O)O [Formulation 86] | Solid | 
59 | CCC(=O)O.N[C@@H](Cc1c[nH]cn1)C(=O)O [Formulation 87] | Solid | 
60 | CCCCCC(=O)O.N[C@@H](Cc1c[nH]cn1)C(=O)O [Formulation 88] | Solid | 
61 | CCCC(=O)O.N[C@@H](Cc1c[nH]cn1)C(=O)O [Formulation 89] | Solid | 
62 | CCCCCCCC/C=C\CCCCCCCC(=O)O.N[C@@H](Cc1c[nH]cn1)C(=O)O [Formulation 91] | Solid | 
63 | CCCCC/C=C\C/C=C\CCCCCCCC(=O)O.N[C@@H](Cc1c[nH]cn1)C(=O)O [Formulation 92] | Solid | 
64 | CC(O)C(=O)O.N[C@@H](Cc1cnc[nH]1)C(=O)O [Formulation 94] | Solid | 
65 | N[C@@H](Cc1c[nH]cn1)C(=O)O.O=C(O)CCCCC(=O)O [Formulation 95] | Solid | 
66 | N[C@@H](Cc1c[nH]cn1)C(=O)O.O=C(O)CCC(=O)O [Formulation 96] | Solid | 
67 | N[C@@H](CCC(=O)O)C(=O)O.N[C@@H](Cc1c[nH]cn1)C(=O)O [Formulation 97] | Solid | 
68 | N[C@@H](Cc1c[nH]cn1)C(=O)O.O=C(O)/C=C/C(=O)O [Formulation 98] | Solid | 
69 | N[C@@H](Cc1cnc[nH]1)C(=O)O.O=C(O)C[C@H](O)C(=O)O [Formulation 99] | Solid | 
70 | N[C@@H](Cc1c[nH]cn1)C(=O)O.O=C(O)C(O)C(O)C(=O)O [Formulation 101] | Solid | 
71 | N[C@@H](Cc1c[nH]cn1)C(=O)O.O=C(O)c1ccccc1 [Formulation 102] | Solid | 
72 | N[C@@H](Cc1c[nH]cn1)C(=O)O.O=C(O)C=Cc1ccccc1 [Formulation 103] | Solid | 
73 | N[C@@H](Cc1c[nH]cn1)C(=O)O.O=C1O[C@H]([C@@H](O)CO)C(O)=C1O [Formulation 104] | Solid | 
74 | N[C@@H](Cc1c[nH]cn1)C(=O)O.O=CO.O=CO [Formulation 106] | Solid | 
75 | CCCCCC(=O)O.CCCCCC(=O)O.N[C@@H](Cc1cnc[nH]1)C(=O)O [Formulation 109] | Solid | 
76 | CCCC(=O)O.CCCC(=O)O.N[C@@H](Cc1cnc[nH]1)C(=O)O [Formulation 110] | Solid | 
77 | CCCCCCCC/C=C\CCCCCCCC(=O)O.CCCCCCCC/C=C\CCCCCCCC(=O)O.N[C@@H](Cc1c[nH]cn1)C(=O)O [Formulation 112] | Solid | 
